How the values were obtained:
Experiment in all cases: radiometric filter-binding kinase assay, Kinase HotSpot
Conditions in all cases: compound 0.5 µM; ATP 10 µM
CSNK1E (human) = CSNK1E (human) (UniProt P49674)
CDK9 CCNK (human) = CDK9 CCNK (human) (UniProt O75909+P50750)
RPS6KA3 KD1 KD2 (human) = RPS6KA3 KD1 KD2 (human) (UniProt P51812)
MAPK1 (human) = MAPK1 (human) (UniProt P28482)
CDK2 CCNA2 (human) = CDK2 CCNA2 (human) (UniProt P24941+P20248)
TXK (human) = TXK (human) (UniProt P42681)
NEK7 (human) = NEK7 (human) (UniProt Q8TDX7)
CDK2 CCNE1 (human) = CDK2 CCNE1 (human) (UniProt P24941+P24864)
MAP4K2 (human) = MAP4K2 (human) (UniProt Q12851)
TAOK1 (human) = TAOK1 (human) (UniProt Q7L7X3)
TAOK1 (human), sequence (Q7L7X3 whole entry, looked up): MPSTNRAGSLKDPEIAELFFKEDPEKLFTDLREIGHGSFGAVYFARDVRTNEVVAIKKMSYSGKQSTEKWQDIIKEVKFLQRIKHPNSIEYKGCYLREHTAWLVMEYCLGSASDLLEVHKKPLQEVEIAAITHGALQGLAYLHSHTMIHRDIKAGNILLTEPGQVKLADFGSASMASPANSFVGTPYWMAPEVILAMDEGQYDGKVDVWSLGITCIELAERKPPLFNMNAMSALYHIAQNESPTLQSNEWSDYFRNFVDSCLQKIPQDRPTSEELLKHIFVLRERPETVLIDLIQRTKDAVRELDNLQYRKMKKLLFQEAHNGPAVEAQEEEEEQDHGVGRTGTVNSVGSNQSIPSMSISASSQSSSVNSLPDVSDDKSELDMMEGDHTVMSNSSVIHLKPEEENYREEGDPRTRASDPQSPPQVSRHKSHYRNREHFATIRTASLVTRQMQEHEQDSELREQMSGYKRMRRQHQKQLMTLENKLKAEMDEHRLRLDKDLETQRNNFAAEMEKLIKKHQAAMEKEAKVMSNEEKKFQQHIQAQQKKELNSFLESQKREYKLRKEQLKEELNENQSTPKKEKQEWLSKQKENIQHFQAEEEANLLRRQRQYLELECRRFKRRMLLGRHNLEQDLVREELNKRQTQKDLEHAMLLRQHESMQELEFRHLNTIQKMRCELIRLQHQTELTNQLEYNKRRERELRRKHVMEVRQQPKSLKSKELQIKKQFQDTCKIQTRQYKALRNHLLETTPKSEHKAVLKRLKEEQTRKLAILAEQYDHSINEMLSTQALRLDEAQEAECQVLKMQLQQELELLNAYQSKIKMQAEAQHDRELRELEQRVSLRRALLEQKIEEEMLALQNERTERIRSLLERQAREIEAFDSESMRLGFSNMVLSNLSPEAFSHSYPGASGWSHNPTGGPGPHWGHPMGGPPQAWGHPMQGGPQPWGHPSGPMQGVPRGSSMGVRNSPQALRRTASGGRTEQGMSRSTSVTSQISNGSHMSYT

TSSK2 (human) = TSSK2 (human) (UniProt Q96PF2)
CHEK1 (human) = CHEK1 (human) (UniProt O14757)
CDK4 CCND3 (human) = CDK4 CCND3 (human) (UniProt P30281+P11802)
MAP3K8 (human) = MAP3K8 (human) (UniProt P41279)
CAMK2D (human) = CAMK2D (human) (UniProt Q13557)
RPS6KA2 KD1 KD2 (human) = RPS6KA2 KD1 KD2 (human) (UniProt Q15349)
RPS6KA2 KD1 KD2 (human), sequence (Q15349 whole entry, looked up): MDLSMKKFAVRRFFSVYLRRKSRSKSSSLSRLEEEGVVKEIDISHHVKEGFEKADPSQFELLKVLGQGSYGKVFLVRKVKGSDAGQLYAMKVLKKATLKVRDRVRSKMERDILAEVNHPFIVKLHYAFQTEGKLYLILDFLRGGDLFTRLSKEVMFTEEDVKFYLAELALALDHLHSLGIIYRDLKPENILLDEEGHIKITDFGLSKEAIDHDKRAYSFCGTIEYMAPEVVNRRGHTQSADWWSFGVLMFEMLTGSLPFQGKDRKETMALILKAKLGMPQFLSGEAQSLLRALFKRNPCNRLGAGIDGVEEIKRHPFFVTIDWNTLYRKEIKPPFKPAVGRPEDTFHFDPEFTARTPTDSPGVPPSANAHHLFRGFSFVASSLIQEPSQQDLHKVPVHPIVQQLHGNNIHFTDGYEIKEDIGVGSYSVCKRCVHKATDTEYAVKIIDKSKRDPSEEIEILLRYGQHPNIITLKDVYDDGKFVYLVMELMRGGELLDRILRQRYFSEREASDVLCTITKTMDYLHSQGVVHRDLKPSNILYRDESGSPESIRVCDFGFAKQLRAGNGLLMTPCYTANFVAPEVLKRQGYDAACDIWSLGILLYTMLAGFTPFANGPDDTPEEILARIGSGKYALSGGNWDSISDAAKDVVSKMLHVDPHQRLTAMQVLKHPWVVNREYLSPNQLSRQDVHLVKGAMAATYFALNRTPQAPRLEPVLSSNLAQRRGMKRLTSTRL

PIM2 (human) = PIM2 (human) (UniProt Q9P1W9)
PIM2 (human), sequence (Q9P1W9 whole entry, looked up): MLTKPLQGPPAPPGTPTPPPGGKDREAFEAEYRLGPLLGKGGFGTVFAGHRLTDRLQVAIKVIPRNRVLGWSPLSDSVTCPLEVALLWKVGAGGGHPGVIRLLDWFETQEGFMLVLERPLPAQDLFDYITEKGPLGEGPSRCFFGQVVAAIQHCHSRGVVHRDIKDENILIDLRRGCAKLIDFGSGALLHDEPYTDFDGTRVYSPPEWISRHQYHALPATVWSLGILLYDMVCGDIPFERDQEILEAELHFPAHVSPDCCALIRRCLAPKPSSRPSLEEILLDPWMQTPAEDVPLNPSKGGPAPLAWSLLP

HIPK3 (human) = HIPK3 (human) (UniProt Q9H422)
FER (human) = FER (human) (UniProt P16591)
FER (human), sequence (P16591 whole entry, looked up): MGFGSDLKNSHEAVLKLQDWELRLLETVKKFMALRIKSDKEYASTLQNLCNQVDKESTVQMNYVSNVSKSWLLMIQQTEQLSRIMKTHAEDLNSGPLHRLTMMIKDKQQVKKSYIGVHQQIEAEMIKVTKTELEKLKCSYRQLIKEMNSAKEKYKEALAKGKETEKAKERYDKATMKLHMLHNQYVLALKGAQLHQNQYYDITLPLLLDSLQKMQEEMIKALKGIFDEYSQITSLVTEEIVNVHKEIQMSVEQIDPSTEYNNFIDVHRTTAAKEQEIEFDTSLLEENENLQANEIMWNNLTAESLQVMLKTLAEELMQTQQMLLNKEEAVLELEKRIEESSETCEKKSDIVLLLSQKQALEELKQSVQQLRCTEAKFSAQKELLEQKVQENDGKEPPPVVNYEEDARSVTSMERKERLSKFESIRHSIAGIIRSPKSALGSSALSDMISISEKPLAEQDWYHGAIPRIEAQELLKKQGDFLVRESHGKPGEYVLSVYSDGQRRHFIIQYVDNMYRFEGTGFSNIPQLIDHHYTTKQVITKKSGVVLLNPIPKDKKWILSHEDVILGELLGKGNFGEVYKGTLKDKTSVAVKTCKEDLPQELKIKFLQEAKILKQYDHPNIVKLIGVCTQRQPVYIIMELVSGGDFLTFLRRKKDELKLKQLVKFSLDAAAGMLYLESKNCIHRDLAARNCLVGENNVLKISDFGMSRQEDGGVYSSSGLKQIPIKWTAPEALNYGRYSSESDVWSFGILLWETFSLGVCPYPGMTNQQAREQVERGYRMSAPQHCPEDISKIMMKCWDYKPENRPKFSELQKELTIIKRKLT

FGFR4 (human) = FGFR4 (human) (UniProt P22455)
CDK5 CDK5R1 p25 (human) = CDK5 CDK5R1 p25 (human) (UniProt Q00535+Q15078)
RIPK2 (human) = RIPK2 (human) (UniProt O43353)
EPHA3 (human) = EPHA3 (human) (UniProt P29320)
ULK1 (human) = ULK1 (human) (UniProt O75385)
MATK (human) = MATK (human) (UniProt P42679)
NEK3 (human) = NEK3 (human) (UniProt P51956)
PRKD3 (human) = PRKD3 (human) (UniProt O94806)
CHUK (human) = CHUK (human) (UniProt O15111)
CHUK (human), sequence (O15111 whole entry, looked up): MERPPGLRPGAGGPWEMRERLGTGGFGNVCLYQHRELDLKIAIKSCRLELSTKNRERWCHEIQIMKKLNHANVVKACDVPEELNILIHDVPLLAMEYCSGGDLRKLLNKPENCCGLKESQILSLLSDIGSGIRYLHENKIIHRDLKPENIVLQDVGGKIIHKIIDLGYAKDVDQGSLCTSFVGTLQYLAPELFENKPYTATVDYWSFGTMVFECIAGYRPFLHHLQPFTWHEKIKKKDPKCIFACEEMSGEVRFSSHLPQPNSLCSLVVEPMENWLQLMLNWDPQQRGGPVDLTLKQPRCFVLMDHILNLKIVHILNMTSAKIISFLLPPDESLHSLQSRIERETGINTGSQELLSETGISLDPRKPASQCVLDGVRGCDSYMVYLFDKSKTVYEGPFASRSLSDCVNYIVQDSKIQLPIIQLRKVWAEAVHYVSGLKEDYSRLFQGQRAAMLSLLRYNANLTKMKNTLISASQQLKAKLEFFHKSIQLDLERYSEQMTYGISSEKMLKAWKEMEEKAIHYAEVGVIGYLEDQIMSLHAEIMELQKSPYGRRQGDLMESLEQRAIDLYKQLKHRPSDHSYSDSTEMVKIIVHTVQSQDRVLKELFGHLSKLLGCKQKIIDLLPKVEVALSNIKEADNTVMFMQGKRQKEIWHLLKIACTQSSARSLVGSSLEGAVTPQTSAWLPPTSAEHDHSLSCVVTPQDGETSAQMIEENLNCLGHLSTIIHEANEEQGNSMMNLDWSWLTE

CHEK2 (human) = CHEK2 (human) (UniProt O96017)
PRKCZ (human) = PRKCZ (human) (UniProt Q05513)
TEC (human) = TEC (human) (UniProt P42680)
BLK (human) = BLK (human) (UniProt P51451)
PBK (human) = PBK (human) (UniProt Q96KB5)
MAPK8 (human) = MAPK8 (human) (UniProt P45983)
MARK4 (human) = MARK4 (human) (UniProt Q96L34)
TYRO3 (human) = TYRO3 (human) (UniProt Q06418)
TTK (human) = TTK (human) (UniProt P33981)
PNCK (human) = PNCK (human) (UniProt Q6P2M8)
PNCK (human), sequence (Q6P2M8 whole entry, looked up): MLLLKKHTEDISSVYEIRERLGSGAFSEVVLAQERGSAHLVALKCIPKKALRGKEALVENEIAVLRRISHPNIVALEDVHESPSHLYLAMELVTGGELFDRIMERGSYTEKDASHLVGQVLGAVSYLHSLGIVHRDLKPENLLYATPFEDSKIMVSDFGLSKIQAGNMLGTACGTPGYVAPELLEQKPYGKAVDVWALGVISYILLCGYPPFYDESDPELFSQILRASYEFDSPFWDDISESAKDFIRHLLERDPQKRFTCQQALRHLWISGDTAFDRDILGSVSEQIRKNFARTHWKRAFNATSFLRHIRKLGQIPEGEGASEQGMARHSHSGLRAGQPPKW

FRK (human) = FRK (human) (UniProt P42685)
MELK (human) = MELK (human) (UniProt Q14680)
KIT (human) = KIT (human) (UniProt P10721)

MAPK1 (human), sequence (P28482 whole entry, looked up): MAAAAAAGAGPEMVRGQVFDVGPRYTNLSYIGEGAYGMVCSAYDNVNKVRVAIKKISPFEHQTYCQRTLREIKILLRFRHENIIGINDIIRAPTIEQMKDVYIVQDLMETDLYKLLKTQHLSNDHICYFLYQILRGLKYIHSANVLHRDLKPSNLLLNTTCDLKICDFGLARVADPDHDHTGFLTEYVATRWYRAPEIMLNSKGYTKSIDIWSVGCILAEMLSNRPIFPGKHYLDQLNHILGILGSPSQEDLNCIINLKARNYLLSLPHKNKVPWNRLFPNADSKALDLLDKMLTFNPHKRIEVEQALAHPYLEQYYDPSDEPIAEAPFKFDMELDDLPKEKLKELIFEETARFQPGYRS
TXK (human), sequence (P42681 whole entry, looked up): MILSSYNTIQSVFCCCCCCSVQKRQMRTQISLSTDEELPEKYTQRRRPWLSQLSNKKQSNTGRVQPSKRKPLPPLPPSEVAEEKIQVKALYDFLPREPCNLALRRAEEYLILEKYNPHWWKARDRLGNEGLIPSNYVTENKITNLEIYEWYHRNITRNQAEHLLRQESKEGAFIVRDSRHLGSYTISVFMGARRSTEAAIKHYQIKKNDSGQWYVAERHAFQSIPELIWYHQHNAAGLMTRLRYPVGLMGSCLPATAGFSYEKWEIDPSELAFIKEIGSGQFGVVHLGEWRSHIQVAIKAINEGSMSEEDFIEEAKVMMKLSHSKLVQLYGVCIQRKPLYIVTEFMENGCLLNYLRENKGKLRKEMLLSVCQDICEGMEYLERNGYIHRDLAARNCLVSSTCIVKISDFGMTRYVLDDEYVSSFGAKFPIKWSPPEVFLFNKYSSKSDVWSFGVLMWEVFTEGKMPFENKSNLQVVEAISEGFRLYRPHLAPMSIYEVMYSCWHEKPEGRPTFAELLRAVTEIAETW

SMILES: Nc1cccc(-c2cc3c(Oc4cccc(O)c4)ncnc3[nH]2)c1
- residual activity (CSNK1E (human)): 92.9%
- residual activity (CDK9 CCNK (human)): 58.4%
- residual activity (RPS6KA3 KD1 KD2 (human)): 96.9%
- residual activity (MAPK1 (human)): 114%
- residual activity (CDK2 CCNA2 (human)): 88.5%
- residual activity (TXK (human)): 24.5%
- residual activity (NEK7 (human)): 99.4%
- residual activity (CDK2 CCNE1 (human)): 90%
- residual activity (MAP4K2 (human)): 55.5%
- residual activity (TAOK1 (human)): 142%
- residual activity (TSSK2 (human)): 95.6%
- residual activity (CHEK1 (human)): 66.2%
- residual activity (CDK4 CCND3 (human)): 92.8%
- residual activity (MAP3K8 (human)): 99.6%
- residual activity (CAMK2D (human)): 99.8%
- residual activity (RPS6KA2 KD1 KD2 (human)): 91.5%
- residual activity (PIM2 (human)): 108%
- residual activity (HIPK3 (human)): 94%
- residual activity (FER (human)): 44%
- residual activity (FGFR4 (human)): 45.1%
- residual activity (CDK5 CDK5R1 p25 (human)): 114%
- residual activity (RIPK2 (human)): 30.5%
- residual activity (EPHA3 (human)): 39.7%
- residual activity (ULK1 (human)): 143%
- residual activity (MATK (human)): 97.8%
- residual activity (NEK3 (human)): 57.5%
- residual activity (PRKD3 (human)): 91%
- residual activity (CHUK (human)): 102%
- residual activity (CHEK2 (human)): 75.8%
- residual activity (PRKCZ (human)): 94%
- residual activity (TEC (human)): 108%
- residual activity (BLK (human)): 38.1%
- residual activity (PBK (human)): 93.9%
- residual activity (MAPK8 (human)): 94.4%
- residual activity (MARK4 (human)): 68.8%
- residual activity (TYRO3 (human)): 52.1%
- residual activity (TTK (human)): 104%
- residual activity (PNCK (human)): 98.2%
- residual activity (FRK (human)): 6.95%
- residual activity (MELK (human)): 93.4%
- residual activity (KIT (human)): 35.1%

— the kinase profiling compilation of Christmann-Franck et al. (2016)
